Results on five compounds are retold here after patent EP4596561A1, “PHOSPHORUS-CONTAINING COMPOUND, PHARMACEUTICAL COMPOSITION AND USE THEREOF” (Suzhou Genhouse Bio Co., Ltd., priority 2022, dated 2024).

The structures appear in SMILES notation. Where two headings read alike, the source gives them in different places.

Data set [1] concerns MSTO-211H (NF2 wide-type). The experiment in a line: Inhibition of cell proliferation (CellTiter-Lumi). It is filed as cell-based. The conditions noted are these: Homo sapiens, 72 h + another 72 h treatment. The protocol:
(§1) NCI-H2052 (NF2 mutant), NCI-H226 (NF2 mutant), NCI-H2452 (NF2 wide-type), NCI-H28 (NF2 wide-type), and MSTO-211H (NF2 wide-type) cells were cultured in RPMI 1640 complete media.
(§2) The normally growing cells described above were digested with a trypsin cell-digesting solution, centrifuged, counted, and then plated in a 96-well plate at a density of 1000 cells per well. Administration was performed 24 h after the cell plating. Inhibitors at different concentration gradients were added at 10 µL per well, and three replicate wells were set for each concentration point. The starting concentration was 20 µM and diluted 8 times with a 4-fold gradient. A corresponding negative control group treated with 0.1% DMSO was also set up. After 72 h of drug treatment, the cell culture plate to be tested was taken out of the incubator. The culture medium in the 96-well plate was pipetted, and 190 µL of fresh RPMI 1640 complete medium was added. Another administration was performed, and the cells were cultured for another 72 h. The 96-well plate was taken out and allowed to equilibrate at room temperature for 10 min. The medium in the 96-well plate was pipetted, and 200 µL of CellTiter-Lumi™ luminescent cell viability detection solution (mixed with a medium in a ratio of 1:1) was added. After shaking for two minutes, the mixture was reacted at room temperature for 10 min. Then, 150 µL of liquid was pipetted from the transparent 96-well plate and transferred to a white 96-well plate for chemiluminescence reading. The background value was subtracted from the value for each well to calculate the cell survival rate. Survival rate (%) = […]. Sample is the chemiluminescence of the drug-treated group, and Vehicle is the […] of the DMSO control group. A sigmoidal dose-survival rate curve was plotted using a non-linear regression model in the GraphPad Prism 7.0 software, and the IC50 values or GI50 values were calculated.

Data set [2] deals with NCI-H2452 (NF2 wide-type). The experiment in a line: Inhibition of cell proliferation (CellTiter-Lumi). It is filed as cell-based. The conditions noted are these: Homo sapiens, 72 h + another 72 h treatment. The protocol:
as §1
as §2, with “The medium in the 96-well plate was pipetted, and 200 µL of CellTiter-Lumi™ luminescent cell viability detection solution (mixed with a medium in a ratio of 1:1) was added.” left out

Another data set has as its system NCI-H28 (NF2 wide-type). The experiment in a line: Inhibition of cell proliferation (CellTiter-Lumi). In kind it is cell-based. As to conditions: Homo sapiens, 72 h + another 72 h treatment. The procedure: as §1
as §2, with “The medium in the 96-well plate was pipetted, and 200 µL of CellTiter-Lumi™ luminescent cell viability detection solution (mixed with a medium in a ratio of 1:1) was added.” left out

A short description of data set [3]: Pharmacokinetic test in mice (low dose). As to conditions: mouse, plasma, mice; for AUC(0-t): read-out: AUClast; for half-life: read-out: T1/2 (converted). It is filed as in vivo, Balb/c mice. The procedure: The compounds of the present disclosure were administered to Balb/c mice by single intravenous injection and oral gavage, and the plasma of the mice at each time point was collected. The concentration of the compounds to be tested in BALB/C plasma was detected using the LC-MS/MS analysis method, and pharmacokinetic analysis was performed.
The mixture was vortexed, shaken, and ultrasonicated. The remaining volume of 25% sulfobutylether-β-cyclodextrin (sterilized) was added to prepare the final concentration solution or suspension.
Intravenous injection formulations will be directly administered in animal experiments without filtration. The IV drug preparation vials were disinfected in an infrared sterilization cabinet one day in advance.
Intravenous injection: Administration was performed via the tail vein. After the needle was inserted, the syringe was slowly […].
Gavage: Gavage needle and syringe of an appropriate type were selected. The gavage needle was inserted from the root of the tongue into the esophagus until it reached near the cardia of the stomach, then the drug formulation was injected, and the gavage needle was withdrawn. When disposable plastic gavage needles were used, one needle was used for each group.
At each time point, 60 µL of whole blood was collected from the submandibular vein or tail vein (except for the IV group). The blood sample was added to a pre-cooled anticoagulant blood collection tube containing anticoagulant EDTA-K2 (1 µL, 15% EDTA-K2 solution), placed on wet ice, and centrifuged (3000 g, 4 °C, 10 min) within 1 h. The plasma was immediately collected after centrifugation, transferred to an EP tube, and stored at -90 °C to -60 °C.
Plasma concentration detection: A developed LC-MS/MS method was used to detect the compounds in plasma.
The plasma concentration-time data were analyzed using a non-compartmental model in the Phoenix® WinNonlin® (Version 8.2, Pharsight, Mountain View, CA).

Data set [4] deals with YAP-TEAD transcription complex. Kind of data set: YAP-TEAD reporter gene assay (dual luciferase, stably transfected 293T cells). It is filed as cell-based. The conditions noted are these: Homo sapiens, HEK-293T; 293T reporter cells, 24 h of drug treatment; read-out: IC50. The procedure:
YAP-TEAD reporter gene The YAP-TEAD reporter gene assay was performed as follows. Firstly, the 8xGTIIC promoter sequence ([…] GTACTGTTGGTAAA) was constructed into a pGL4.20(luc2-Puro) plasmid, and the TK promoter ([…]) unrelated to the hippo pathway was constructed into a pGL4.78(hRlucCP/Hygro) plasmid, thereby constructing stably transfected 293T cells that can stably and continuously express the transcriptional activity of the YAP-TEAD transcription complex. After selection and identification of individual clones, the clones were grown and maintained in a DMEM medium containing 10% fetal bovine serum, penicillin-streptomycin solution, 1 µg/mL puromycin, and 150 µg/mL hygromycin. To perform reporter gene assays with the compounds to be tested, the well-growing cells described above were plated in a 384-well plate at a cell density of 3000 cells per well, with 90 µL per well. The periphery was sealed with an appropriate amount of PBS to prevent evaporation of water from the peripheral wells. Administration was performed on the next day after the cell plating. The test compounds were added at different concentration gradients, and three replicate wells were set for each concentration point. The compound concentration started at 5 µM and was diluted seven times with a 5-fold gradient. A corresponding negative control group treated with DMSO was also set up. After 24 h of drug treatment, the detection reagents were prepared first. The Dual-Lumi™ Firefly luciferase detection reagent and Dual-Lumi™ Renilla luciferase detection buffer were dissolved and brought to room temperature. […]. According to the amount of 100 µL of Dual-Lumi™ Renilla luciferase detection working solution required for the detection of each sample, an appropriate amount of Dual-Lumi™ Renilla luciferase detection working solution was prepared. […]. The cell culture plate was taken out and allowed to equilibrate at room temperature for 10 min (usually no more than 30 min). Then, 100 µL of Dual-Lumi™ Firefly luciferase detection reagent was added to each well of a 96-well plate (25 µL per well for the 384-well plate), and the mixture was mixed well. The mixture was then incubated at room temperature (about 25 °C) for 10 min to stabilize the luminescent signal, and then chemiluminescence was detected using a multimode microplate reader with a chemiluminescence detection function. Subsequently, the detection of Renilla luciferase began. Firstly, 100 µL of Dual-Lumi™ Renilla luciferase detection working solution was added to each well of a […] (25 µL per well for the 384-well plate), and the mixture was mixed well. The mixture was then incubated at room temperature (about 25 °C) for 10 min to stabilize the luminescent signal. Finally, chemiluminescence was detected using a multimode microplate reader with a chemiluminescence detection function. The obtained data were analyzed using GraphPad Prism 7.0 software. A sigmoidal dose-survival rate curve was plotted using a non-linear regression model, and the IC50 values were calculated.

`CP(C)(=O)c1ccc2c(c1)c1ncccc1n2-c1ccc(C(F)(F)F)cc1` [Example 4]: the IC50 was greater than 1250 nM in data set [1], greater than 5000 nM in data set [2], greater than 1250 nM in the data set with NCI-H28 (NF2 wide-type) and 123 nM in data set [4]. Besides, the MRT in data set [3] (IV 2 mg/kg) came out at 6.4 h; in data set [3] (PO 10 mg/kg), 5.3 h. Moreover, the AUC(0-t) in data set [3] (IV 2 mg/kg) was 9.23 µM·h; in data set [3] (PO 10 mg/kg), 79 µM·h. Besides, the clearance in data set [3] (IV 2 mg/kg, read-out: Cl (converted)) was 8.33 mL/min/kg. The half-life in data set [3] (IV 2 mg/kg) was 6.3 h; in data set [3] (PO 10 mg/kg) it was 3.3 h. In addition, the bioavailability in data set [3] (PO 10 mg/kg vs IV 2 mg/kg, read-out: F%) was determined as 163%. For the same compound, in data set [3] (PO 10 mg/kg, read-out: Cmax), the Cmax amounted to 9.36 µM.
Take `Cn1cnc(-c2cc(P(C)(C)=O)ccc2Nc2ccc(C(F)(F)F)cn2)c1` [Example 13]: the IC50 was greater than 20000 nM in data set [1], greater than 20000 nM in data set [2], greater than 5000 nM in the data set with NCI-H28 (NF2 wide-type) and 344 nM in data set [4].
As to `CP(C)(=O)c1cnc(Nc2ccc(C(F)(F)F)cc2)c(-n2cccn2)c1` [Example 18], the IC50 in data set [1] was greater than 1250 nM; in data set [2] it was greater than 1250 nM; in the data set with NCI-H28 (NF2 wide-type), greater than 20000 nM.
Take `CP(C)(=O)c1ccc2c(c1)c1nccnc1n2-c1ccc(C(F)(F)F)cc1` [Example 19]: the IC50 in data set [1] was 628 nM; in data set [2] it was greater than 5000 nM; in the data set on NCI-H28 (NF2 wide-type), greater than 5000 nM.
As for `CP(C)(=O)c1cnc(Nc2ccc(C(F)(F)F)cc2)c(-n2cc(C(F)(F)F)cn2)c1` [Example 20], the IC50 is greater than 1250 nM in data set [1], greater than 20000 nM in the data set on NCI-H28 (NF2 wide-type) and 439 nM in data set [4].
